{
  "source": "paper PMC7576608",
  "about": "“Mechanisms of telomerase inhibition by oxidized and therapeutic dNTPs” (Nature Communications, 2020)",
  "biological_target": "telomerase (Homo sapiens, UniProt O14746)",
  "sequence (O14746 whole entry)": "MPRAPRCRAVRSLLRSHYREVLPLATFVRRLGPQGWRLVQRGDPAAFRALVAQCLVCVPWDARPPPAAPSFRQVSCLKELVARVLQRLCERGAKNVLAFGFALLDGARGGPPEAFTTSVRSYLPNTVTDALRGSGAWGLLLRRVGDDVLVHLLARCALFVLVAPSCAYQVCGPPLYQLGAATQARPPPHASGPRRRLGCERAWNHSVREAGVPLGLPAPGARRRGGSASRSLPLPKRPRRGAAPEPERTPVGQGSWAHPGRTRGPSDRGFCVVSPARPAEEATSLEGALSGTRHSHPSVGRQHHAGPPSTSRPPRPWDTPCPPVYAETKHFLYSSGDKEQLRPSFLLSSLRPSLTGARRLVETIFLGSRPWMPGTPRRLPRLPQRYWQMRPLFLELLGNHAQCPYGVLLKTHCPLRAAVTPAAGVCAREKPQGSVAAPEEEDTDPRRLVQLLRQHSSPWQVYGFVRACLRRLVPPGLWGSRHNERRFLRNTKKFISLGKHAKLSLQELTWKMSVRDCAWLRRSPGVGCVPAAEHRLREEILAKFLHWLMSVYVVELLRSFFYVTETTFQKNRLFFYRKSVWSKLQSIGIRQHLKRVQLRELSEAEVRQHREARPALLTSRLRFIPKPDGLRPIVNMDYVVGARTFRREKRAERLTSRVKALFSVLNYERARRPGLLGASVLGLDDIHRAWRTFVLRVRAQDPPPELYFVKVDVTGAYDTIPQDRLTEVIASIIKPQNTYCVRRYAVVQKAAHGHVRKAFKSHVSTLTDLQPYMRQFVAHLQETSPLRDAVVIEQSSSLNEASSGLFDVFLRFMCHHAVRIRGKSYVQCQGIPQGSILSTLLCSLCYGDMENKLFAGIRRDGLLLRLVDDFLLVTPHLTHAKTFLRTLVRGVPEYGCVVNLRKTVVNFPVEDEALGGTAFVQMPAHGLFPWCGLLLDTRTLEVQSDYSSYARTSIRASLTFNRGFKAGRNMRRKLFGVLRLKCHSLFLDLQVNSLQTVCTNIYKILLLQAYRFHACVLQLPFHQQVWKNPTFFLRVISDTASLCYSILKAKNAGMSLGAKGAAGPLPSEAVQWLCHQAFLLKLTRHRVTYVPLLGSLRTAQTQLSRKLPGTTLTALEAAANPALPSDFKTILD",
  "assay": "Telomerase repeat processivity IC50: modified dNTP titrated into reactions with all four natural dNTPs",
  "assay_type": "biochemical",
  "set-up": "made in house; anti-FLAG immunopurification, eluted with 3xFLAG peptide",
  "text": "In order to better understand the ability of modified dNTPs to compete with natural dNTPs for telomerase utilization, we added modified dNTPs to reactions containing all four natural dNTPs. […] The calculated IC50 determines the concentration required to reduce repeat processivity in the bulk reactions by half. However, it is important to note that bulk experiments cannot distinguish effects on individual telomeres, since extended telomeres mask unextended telomeres. Incorporation of a chain terminator during any step will terminate extension of the affected telomere, and just five critically short telomeres are sufficient to trigger senescence. Therefore, repeat processivity IC50 values are not necessarily an indicator of the inhibitory potency, but provide information on selectivity for modified dNTPs compared to natural dNTPs. […] The ability to purify sufficient quantities of tcTERT enables characterization of the catalytic nucleotide addition by pre-steady-state single turnover kinetics using a defined DNA–RNA primer–template substrate. The catalytic efficiency of incorporating a single dNTP is measured by dividing the observed nucleotide incorporation rate constant, kpol, by the equilibrium dissociation constant for dNTP binding to the tcTERT–primer–template complex (Kd)[44].\nThe reactions were started by the addition of 3 μl of immunopurified telomerase eluent, incubated at 37 °C for 1 h, then terminated with 2 μl of […] and heat inactivated at 65 °C for 20 min. An equal volume of loading buffer (94% formamide, 0.1× TBE, 0.1% bromophenol blue, 0.1% xylene cyanol) was added to the reaction eluent. The samples were heat denatured for 10 min at 100 °C and loaded onto a 14% denaturing acrylamide gel (7 M urea, 1× TBE) and electrophoresed for 90 min at constant 38 W. Samples were imaged using a Typhoon phosphorimager (GE Healthcare). Percent primer extension was calculated with ImageQuant TL 8.2 by measuring the intensity of each product band and dividing by the total radioactivity in the lane or total products, as indicated in the figure legends.\nThe processivity was calculated as described[40],[67]. Repeat processivity from the direct telomerase extension assays was calculated as R1/2 (equivalent to the half-time for decay in an exponential time course), which represents the median length of DNA product formed, expressed in terms of number of telomere repeats. First, the total volume counts for each product band extend by one or more telomere repeats were obtained using Image Quant TL. The volume counts were then normalized by dividing by the number of radiolabeled guanosines incorporated into the extended products based on the number of repeats added, termed corrected volume (corr vol). The “percent left behind” (%LB) was calculated for each product band by summing the counts for that product band and for every product band below (shorter products), divided by the total counts for the lane, and then multiplied by 100. The natural log of (100−%LB) was calculated and then plotted vs. repeat number for each product length. A linear regression line was fit to the data to determine the slope of the line. The R1/2 value was calculated by dividing −ln(2) by the slope of each fitted line (R1/2 = −ln(2)/slope).\nSupplementary Fig 8. IC50 values for telomerase processivity inhibition. Telomerase reactions were conducted with cellular relevant concentrations of all four natural dNTPs and increasing concentrations of the modified dNTP analog from 0 to 10,000 μM to calculate. (a) The natural log of (100-%LB) was plotted vs repeat number. A straight line was fit to the data and the R1/2 value was calculated by dividing –ln(2) by the slope of each line. Plots shown from one experiment are […]",
  "key": {"[1]": {"conditions": "dose-response fit of processivity R 1/2, individual replicates"}, "[2]": {"conditions": "dose-response fit of processivity R 1/2 vs log(concentration), individual replicates"}},
  "note": "Values joined by “and” are separate entries in the source; they are usually repeats but may differ in a detail not shown here. Identical values can stand only once. Like-named read-outs stand apart in the source and are kept apart here.",
  "data": [
    {"smiles": "O=c1[nH]cnc2c1ncn2C1CCC(COP(=O)(O)OP(=O)(O)OP(=O)(O)O)O1", "note": "(stereo not drawn) [ddITP]", "values": [
      {"measurement": "IC50", "setting": "cellular relevant natural dNTPs, modified dNTP titrated 0 to 10,000 μM, based on repeat processivity, mean ± SD, read-out: Telomerase processivity IC50", "result": "61 ± 23", "unit": "µM"},
      {"measurement": "YIntercept (line fit of ln(100-%LB) vs # telomere repeats)", "setting": "ddITP 31μM", "result": "3.68 and 3.90 and 3.32"},
      {"measurement": "ln(100-%LB)", "setting": "ddITP 31μM, telomere repeat 1", "result": "3.63 and 3.77 and 3.47"},
      {"measurement": "ln(100-%LB)", "setting": "ddITP 31μM, telomere repeat 2", "result": "2.96 and 3.17 and 2.59"},
      {"measurement": "ln(100-%LB)", "setting": "ddITP 31μM, telomere repeat 3", "result": "2.31 and 2.52 and 1.69"},
      {"measurement": "ln(100-%LB)", "setting": "ddITP 31μM, telomere repeat 4", "result": "1.98 and 2.18 and 1.18"},
      {"measurement": "YIntercept (line fit of ln(100-%LB) vs # telomere repeats)", "setting": "ddITP 62μM", "result": "4.03 and 4.15"},
      {"measurement": "ln(100-%LB)", "setting": "ddITP 62μM, telomere repeat 1", "result": "3.64 and 3.75"},
      {"measurement": "ln(100-%LB)", "setting": "ddITP 62μM, telomere repeat 2", "result": "2.81 and 2.79"},
      {"measurement": "ln(100-%LB)", "setting": "ddITP 62μM, telomere repeat 3", "result": "1.96 and 1.84"},
      {"measurement": "ln(100-%LB)", "setting": "ddITP 62μM, telomere repeat 4", "result": "1.44 and 1.17"},
      {"measurement": "ln(100-%LB)", "setting": "ddITP 62μM, telomere repeat 5", "result": "0.94 and 0.56"},
      {"measurement": "YIntercept (line fit of ln(100-%LB) vs # telomere repeats)", "setting": "ddITP 250μM", "result": "4.62 and 3.98"},
      {"measurement": "ln(100-%LB)", "setting": "ddITP 250μM, telomere repeat 1", "result": "3.84 and 3.61"},
      {"measurement": "ln(100-%LB)", "setting": "ddITP 250μM, telomere repeat 2", "result": "2.72 and 2.32"},
      {"measurement": "ln(100-%LB)", "setting": "ddITP 250μM, telomere repeat 3", "result": "1.42 and 1.15"},
      {"measurement": "ln(100-%LB)", "setting": "ddITP 250μM, telomere repeat 4", "result": "0.59 and 0.39"},
      {"measurement": "Slope (line fit of ln(100-%LB) vs # telomere repeats)", "setting": "ddITP 500μM", "result": -0.95},
      {"measurement": "YIntercept (line fit of ln(100-%LB) vs # telomere repeats)", "setting": "ddITP 500μM", "result": 4.49},
      {"measurement": "ln(100-%LB)", "setting": "ddITP 500μM, telomere repeat 1", "result": "3.63 and 3.72"},
      {"measurement": "ln(100-%LB)", "setting": "ddITP 500μM, telomere repeat 2", "result": "2.49 and 2.52"},
      {"measurement": "ln(100-%LB)", "setting": "ddITP 500μM, telomere repeat 3", "result": "1.54 and 1.27"},
      {"measurement": "ln(100-%LB)", "setting": "ddITP 500μM, telomere repeat 4", "result": "0.70 and 0.51"},
      {"measurement": "YIntercept (line fit of ln(100-%LB) vs # telomere repeats)", "setting": "ddITP 750μM", "result": "4.67 and 4.49"},
      {"measurement": "ln(100-%LB)", "setting": "ddITP 750μM, telomere repeat 1", "result": "3.72 and 3.79"},
      {"measurement": "ln(100-%LB)", "setting": "ddITP 750μM, telomere repeat 2", "result": "2.57 and 2.74"},
      {"measurement": "ln(100-%LB)", "setting": "ddITP 750μM, telomere repeat 3", "result": "1.55 and 1.58"},
      {"measurement": "ln(100-%LB)", "setting": "ddITP 750μM, telomere repeat 4", "result": "0.67 and 0.79"},
      {"measurement": "YIntercept (line fit of ln(100-%LB) vs # telomere repeats)", "setting": "ddITP 1000μM", "result": "4.63 and 4.20"},
      {"measurement": "ln(100-%LB)", "setting": "ddITP 1000μM, telomere repeat 1", "result": "3.82 and 3.80"},
      {"measurement": "ln(100-%LB)", "setting": "ddITP 1000μM, telomere repeat 2", "result": "3.01 and 3.04"},
      {"measurement": "ln(100-%LB)", "setting": "ddITP 1000μM, telomere repeat 3", "result": "2.22 and 2.25"},
      {"measurement": "ln(100-%LB)", "setting": "ddITP 1000μM, telomere repeat 4", "result": "1.56 and 1.76"},
      {"measurement": "ln(100-%LB)", "setting": "ddITP 1000μM, telomere repeat 5", "result": "0.86 and 1.29"},
      {"measurement": "Slope (line fit of ln(100-%LB) vs # telomere repeats)", "setting": "ddITP 1500", "result": -0.86},
      {"measurement": "YIntercept (line fit of ln(100-%LB) vs # telomere repeats)", "setting": "ddITP 1500", "result": "4.62 and 4.48"},
      {"measurement": "ln(100-%LB)", "setting": "ddITP 1500, telomere repeat 1", "result": "3.74 and 3.65"},
      {"measurement": "ln(100-%LB)", "setting": "ddITP 1500, telomere repeat 2", "result": "2.90 and 2.79"},
      {"measurement": "ln(100-%LB)", "setting": "ddITP 1500, telomere repeat 3", "result": "2.03 and 1.76"},
      {"measurement": "ln(100-%LB)", "setting": "ddITP 1500, telomere repeat 4", "result": "1.25 and 1.21"},
      {"measurement": "ln(100-%LB)", "setting": "ddITP 1500, telomere repeat 5", "result": "0.25 and 0.17"},
      {"measurement": "Best-fit values HillSlope", "setting": "[1]", "result": "-1.214 and -1.087 and -1.6"},
      {"measurement": "Best-fit values Span", "setting": "[1]", "result": "1.373 and 2.642 and 1.489"},
      {"measurement": "Best-fit values LogIC50", "setting": "dose-response fit of processivity R 1/2, log of concentration in μM, individual replicates", "result": "1.601 and 1.931 and 1.751"},
      {"measurement": "Best-fit values Bottom", "setting": "[2]", "result": "0.6806 and 0.1353 and 0.7679"},
      {"measurement": "Best-fit values Top", "setting": "[2]", "result": "2.054 and 2.778 and 2.257"},
      {"measurement": "IC50", "setting": "log of processivity IC50 (concentration in μM), Supplementary Fig 8b, read-out: Log IC50 (converted)", "result": 63.1, "unit": "µM"},
      {"measurement": "Processivity R 1/2", "setting": "modified dNTP concentration 31.25 μM, individual replicates n1-n3", "result": "1.52 and 2.08 and 1.82"},
      {"measurement": "Processivity R 1/2", "setting": "modified dNTP concentration 62.5 μM, individual replicates", "result": "1.13 and 1.82"},
      {"measurement": "Processivity R 1/2", "setting": "modified dNTP concentration 250 μM, individual replicates", "result": "0.87 and 0.71"},
      {"measurement": "Processivity R 1/2", "setting": "modified dNTP concentration 500 μM, individual replicates", "result": "0.8 and 0.73 (2×)"},
      {"measurement": "Processivity R 1/2", "setting": "modified dNTP concentration 750 μM, individual replicates", "result": "0.8 and 0.49"},
      {"measurement": "Processivity R 1/2", "setting": "modified dNTP concentration 1000 μM, individual replicates", "result": "0.69 (2×) and 0.47"},
      {"measurement": "Processivity R 1/2", "setting": "modified dNTP concentration 1500 μM, individual replicates", "result": "0.81 and 0.26 and 0.88"},
      {"measurement": "Processivity R 1/2", "setting": "modified dNTP concentration 2000 μM, individual replicates", "result": "0.45 and 0 and 0.81"},
      {"measurement": "IC50", "setting": "repeat processivity R 1/2, individual replicates N1-N3, read-out: Best-fit values IC50", "result": "39.9 µM and 85.3 µM and 56.4 µM"},
      {"measurement": "IC50", "setting": "repeat processivity R 1/2, mean of replicates, read-out: Mean IC50", "result": 60.5, "unit": "µM"}
    ]}
  ]
}
